Here are results for 48 molecules from US9200008B2 (ASKA PHARMACEUTICAL CO., LTD., priority 2010, dated 2015).

The subject of the assay is Human prostate cancer cell lines (PC-3 cells). The assay is described as follows: Measurement of cell death-inducing activity (Test Example 1). The format is cell-based. The note with it: PC-3, 48 h, 48 hours after addition, tested at 10, 1, 0.1, 0.025 and 0.00625 μmol/L, qualitative evaluation of 10 fields, read-out: Concentration showing the cell death-inducing activity (cell death-inducing rate not less than 40%). Here is the method: The cell death-inducing activity of the compound represented by the formula (1) or the salt thereof was measured as follows.
Human prostate cancer cell lines (PC-3 cells) were seeded to 6-well plates at 1×10^5 cells/2 mL/well, and cultured in the presence of 5% CO2 at 37° C. for 48 hours. Thereafter, each compound was added thereto so as to provide 10, 1, 0.1, 0.025 and 0.00625 μmol/L. As a control, DMSO was added. After the addition, the cells were continuously cultured for 48 hours. […] When the cell death-inducing rate was not less than 40%, the compound was judged to have the cell death-inducing activity.
On to `Cc1cc(F)ccc1-c1nc(C)c(COC(=O)Nc2ccc3c(c2)nc2n3CCSC2)s1` [Example 43-1, (3,4-Dihydro-1H-2-thia-4a,9-diazafluoren-7-yl)carbamic acid 2-(4-fluoro-2-methylphenyl)-4-methylthiazol-5-ylmethyl ester], for which the minimal effective concentration was 0.1 µM. Under `COc1cc(Cl)ccc1-c1cc(COC(=O)Nc2ccc3c(c2)ncn3C)n(C)n1` [Example 13-84] stands 0.00625 µM; under `CCn1nnc2cc(COC(=O)Nc3sc(-c4ccccc4OC)nc3C)ccc21` [Example 9-22], 0.025 µM; under `CCc1nc(-c2ccc(Cl)cc2C)sc1NC(=O)OCc1ccc2c(c1)nc1n2CCCC1` [Example 9-356], 0.1 µM.

`CCn1nc(-c2ccc(C)cc2OC)cc1NC(=O)OCc1ccc2c(c1)ncn2CC` [Example 9-229]: the minimal effective concentration was 0.025 µM. Then `CCn1cc2ccc(COC(=O)Nc3cc(-c4ccc(Cl)cc4OC)nn3C)cc2n1` [Example 9-301], with 0.025 µM.

As for `CCc1ccccc1-c1nc(C)c(NC(=O)OCc2ccc3c(c2)ncn3CC)s1` [Example 9-56], the minimal effective concentration was 0.025 µM. Then `COc1ccc(CN(C)NC(=O)c2sc(-c3cccc(C)c3C)nc2C)cc1` [Example 16-5], with 10 µM; and `COc1ccccc1-c1cc(C(=O)N/N=C/c2cc(C)c(O)c(C)c2)[nH]n1` [Example 22-6], with 1 µM; and `CCc1ccccc1-c1nc(C)c(NC(=O)OCc2ccc3c(c2)nc(C)n3CC)s1` [Example 9-84], with 1 µM. Under `CCn1cnc2cc(COC(=O)Nc3cc(-c4ccccc4OC)nn3C)ccc21` [Example 9-215] stands 0.1 µM; under `Cc1ccc(-c2nc(C)c(C(=O)N/N=C/c3cc(C)c(O)c(C)c3)s2)c(C)c1` [Example 23-122], 0.1 µM; under `Cc1cc(F)ccc1-c1nc(C)c(NC(=O)OCc2ccc3c(c2)nc2n3CCOC2)s1` [Example 9-97], 0.025 µM. In the case of `COc1cc(C)ccc1-c1cc(COC(=O)Nc2ccc3c(c2)ncn3C)sn1` [Example 47-3], the minimal effective concentration is 0.00625 µM. Under `Cc1ccc(-c2nc(C3CC3)c(NC(=O)OCc3ccc4c(c3)ncn4C)s2)c(C)c1` [Example 9-185] stands 0.1 µM. For the molecule `COc1ccc(/C=N/NC(=O)c2sc(-c3cccc(F)c3)nc2C)cc1O` [Example 23-72], the minimal effective concentration came out at 1 µM.

For `COc1cc(F)ccc1-c1nc(C)c(NC(=O)OCc2ccc3c(c2)nc2n3C(C)CCC2)s1` (stereo not drawn) [Example 9-116], the minimal effective concentration turned out to be 10 µM. Regarding `O=C(N/N=C/c1ccc2c(c1)nc1n2CCOC1)c1cc(-c2ccc(Cl)cc2Cl)ns1` [Example 49-3], the minimal effective concentration is 10 µM. Consider `COc1ccc(CN(C)NC(=O)c2sc(-c3ccc(C)cc3C)nc2C)cc1` [Example 16-11], for which the minimal effective concentration worked out at 0.1 µM.

On to `CCn1nc(-c2ccc(Cl)cc2OC)cc1COC(=O)Nc1ccc2c(c1)nc1n2CCC1` [Example 13-109], for which the minimal effective concentration amounted to 0.00625 µM.

`Cc1ccc(-c2cc(COC(=O)Nc3ccc4c(c3)nc3n4CCCC3)n(C)n2)c(C)c1` [Example 13-122]: the minimal effective concentration was determined as 0.025 µM. For `CCn1nc(-c2ccc(F)cc2OC)cc1COC(=O)Nc1ccc2c(c1)nc1n2CCOC1` [Example 13-98], the minimal effective concentration was found to be 0.025 µM.

Regarding `Cc1cc(/C=N/NC(=O)c2cc(-c3ccc(Cl)cc3)n[nH]2)cc(C)c1O` [Example 21-21], the minimal effective concentration was found to be 1 µM.

As for `CCn1cc2ccc(COC(=O)Nc3cc(-c4ccc(C)cc4C)nn3CC)cc2n1` [Example 9-305], the minimal effective concentration was 1 µM.

As to `COc1cc(Cl)ccc1-c1nc(C)c(C(=O)N/N=C/c2ccc(O)c(C)c2)s1` [Example 23-76], the minimal effective concentration worked out at 1 µM. Under `CCc1ccccc1-c1nc(C)c(NC(=O)OCc2ccc3c(c2)nc2n3CCC2)s1` [Example 9-100] stands 0.1 µM; under `Cc1ccc(-c2nc(C)c(COC(=O)Nc3ccc4c(c3)ncn4C)s2)c(C)c1` [Example 13-8], 0.025 µM. Then `CCn1cnc2cc(COC(=O)Nc3sc(-c4ccc(F)cc4C)nc3C)ccc21` [Example 9-63], with 0.00625 µM. Under `Cc1ccc(-c2nc(C)c(NC(=O)OCc3ccc4c(c3)nc3n4CCC3)s2)c(C)c1` [Example 9-108] stands 0.025 µM; under `COc1ccc(/C=N/NC(=O)c2sc(-c3scnc3C)nc2C)cc1O` [Example 23-137], 1 µM.

Regarding `CCc1nc(-c2ccc(Cl)cc2C)sc1NC(=O)OCc1ccc2c(c1)nc1n2CCC1` [Example 9-349], the minimal effective concentration was 0.025 µM. Under `Cc1cc(/C=N/NC(=O)c2cc(-c3ccc(Cl)cc3Cl)n[nH]2)cc(C)c1O` [Example 21-11] stands 1 µM; under `CCn1ncc2cc(COC(=O)Nc3sc(-c4ccc(F)cc4OC)nc3C)ccc21` [Example 9-135], 0.025 µM; under `CCn1ncc2cc(COC(=O)Nc3cc(-c4ccc(Cl)cc4OC)ns3)ccc21` [Example 45-4], 10 µM. Then `CCc1nc(-c2ccc(C)cc2OC)sc1NC(=O)OCc1ccc2c(c1)nnn2C` [Example 9-372], with 0.00625 µM. Under `CCn1ncc2cc(COC(=O)Nc3sc(-c4ccc(C)cc4OC)nc3C)ccc21` [Example 9-137] stands 0.00625 µM; under `COc1cc(C)ccc1-c1cc(NC(=O)OCc2ccc3c(c2)nc2n3CCOC2)n(C)n1` [Example 9-249], 0.00625 µM; under `COc1cc(Cl)ccc1-c1cc(NC(=O)OC(C)c2ccc3c(c2)ncn3C)n(C)n1` (stereo not drawn) [Example 9-338], 10 µM. Take `COc1ccccc1-c1cc(COC(=O)Nc2ccc3c(c2)ncn3C)sn1` [Example 47-2]: the minimal effective concentration is 1 µM.

For the molecule `Cc1cc(/C=N/NC(=O)c2sc(-c3ccc(Cl)cc3)nc2C)ccc1O` [Example 23-11], the minimal effective concentration amounted to 10 µM. Then `CCCn1cnc2cc(COC(=O)Nc3sc(-c4ccc(C)cc4C)nc3C)ccc21` [Example 9-69], with 1 µM; and `Cc1cccnc1-c1cc(C(=O)N/N=C/c2cc(C)c(O)c(C)c2)sn1` [Example 27-13], with 0.1 µM.

Turning to `COc1ccccc1-c1cc(NC(=O)OCc2ccc3c(c2)nc2n3CCC2)n(C)n1` [Example 9-254], the minimal effective concentration was 1 µM. Turning to `COc1ccc(/C=N/NC(=O)c2sc(-c3cccc4c3OCCO4)nc2C)cc1O` [Example 23-154], the minimal effective concentration is 10 µM.

`CCn1nc(-c2ccc(Cl)cc2OC)cc1NC(=O)OCc1ccc2c(c1)nc1n2CCOC1` [Example 9-248]: the minimal effective concentration was determined as 0.025 µM. Then `CCn1ncc2cc(COC(=O)Nc3cnc(-c4ccccc4OC)s3)ccc21` [Example 9-179], with 10 µM.

With `CCn1cnc2cc(COC(=O)Nc3sc(-c4ccc(Cl)cc4C)nc3C)ccc21` [Example 9-64], the minimal effective concentration is 0.00625 µM. `COc1cc(Cl)ccc1-c1nc(C)c(C(=O)N/N=C/c2ccc(O)c(O)c2)s1` [Example 23-77]: the minimal effective concentration turned out to be 1 µM.
